The values below come from ChEMBL document CHEMBL3044579, “Modified benzoxazinones in the system Oryza sativa-Echinochloa crus-galli: an approach to the development of biorational herbicide models” (J Agric Food Chem, 2008).

pIC50: −log10 of the molar value.

One data set relates to Oryza sativa. The data set can be described thus: Phytotoxic activity against Oryza sativa (rice) seeds assessed as inhibition of root growth at 25 degC measured after 7 days by crop selectivity assay. In kind it is organism-based. To be noted: L., 168 h.
Data set [1] in a line: Selectivity index, ratio of IC50 for Oryza sativa L. seeds to IC50 for Echinochloa crus-galli L. seeds.
The test system of data set [2] is Echinochloa crus-galli. Put plainly: Herbicidal activity against Echinochloa crus-galli (barnyard grass) seeds assessed as inhibition of root growth at 25 degC measured after 5 days. It is filed as functional, organism-based. The note with it: 120 h.
In data set [3] the test system is Echinochloa crus-galli. The data set can be described thus: Ratio of propanil IC50 to compound IC50 for Echinochloa crus-galli (barnyard grass) seeds measured after 5 days. It is filed as functional.
A short description of data set [4]: Phytotoxic activity against Oryza sativa (rice) seeds assessed as inhibition of root growth at 48 uM at 25 degC measured after 7 days by crop selectivity assay. To be noted: read-out: GI. In kind it is organism-based, L.
In data set [5] the test system is Echinochloa crus-galli. The data set can be described thus: Herbicidal activity against Echinochloa crus-galli (barnyard grass) seeds assessed as inhibition of root growth at 48 uM at 25 degC measured after 5 days. In kind it is functional. To be noted: 120 h, read-out: GI.

As usually defined, the pIC50 is the IC50 on a negative log10 scale, so that one unit is a factor of ten. `O=C1COc2ccccc2N1O`: the pIC50 was 3.83 in the data set on Oryza sativa and 3.63 with Echinochloa crus-galli [2]. In data set [1], the Ratio IC50 amounted to 0.6. The matching figures for `CCCCC1Oc2ccccc2N(O)C1=O` [2-Butyl-D-DIBOA]: 3.38, 3.72 and 2.21. For the compound `CCOC(=O)C1(C)Oc2ccccc2N(O)C1=O` [2-Ethoxycarbonyl-2-methyl-D-DIBOA], the negative-log IC50 (pIC50) in the data set with Oryza sativa is 2.54; with Echinochloa crus-galli [2], 3.18. In data set [1], the Ratio IC50 turned out to be 4.42. Regarding `CCOC(=O)C1Oc2ccccc2N(O)C1=O` [2-Ethoxycarbonyl-D-DIBOA], the pIC50 in the data set on Oryza sativa is 2.84; with Echinochloa crus-galli [2], 3.54. Besides, in data set [1], the Ratio IC50 worked out at 5.03. In the case of `CCC1Oc2ccccc2N(O)C1=O` [2-Ethyl-D-DIBOA], the “Ratio IC50” value in the data set on Echinochloa crus-galli [3] was determined as 3; in data set [1] it was 8.35. In addition, the pIC50 in the data set with Oryza sativa was 3.49; with Echinochloa crus-galli [2] it was 4.41. Further, the inhibition at 168 h, 48 µM in data set [4] came to 20%. Besides, in the data set with Echinochloa crus-galli [5], the inhibition of growth at 48 µM was 50%. For `CCCCCCC1Oc2ccccc2N(O)C1=O` [2-Hexyl-D-DIBOA], the negative-log IC50 (pIC50) is 2.01 in the data set with Oryza sativa and 2.25 in the data set with Echinochloa crus-galli [2]. In addition, the Ratio IC50 in data set [1] was 1.77.

With `CC1Oc2ccccc2N(O)C1=O` [2-Methyl-D-DIBOA], the values for the pIC50 in the data set on Oryza sativa and in the data set with Echinochloa crus-galli [2] were 3.32 and 3.53, respectively. Moreover, the Ratio IC50 in data set [1] worked out at 1.62. Take `O=C1C(c2ccccc2)Oc2ccccc2N1O` [2-Phenyl-D-DIBOA]: the negative-log IC50 (pIC50) in the data set with Oryza sativa was 3.22; in the data set on Echinochloa crus-galli [2] it was 3.69. Also, the Ratio IC50 in data set [1] is 2.96.

Take `CCCC1Oc2ccccc2N(O)C1=O` [2-Propyl-D-DIBOA]: the results for the pIC50 with Oryza sativa and with Echinochloa crus-galli [2] were 3.48 and 3.79, respectively. Moreover, in data set [1], the Ratio IC50 turned out to be 2.05.

In the case of `CC(=O)ON1C(=O)COc2ccccc21` [ABOA], the negative logarithm of the IC50 (pIC50) in the data set on Echinochloa crus-galli [2] is 2.14. Take `CCCC(=O)ON1C(=O)COc2ccccc21` [BU-D-DIBOA]: in the data set on Echinochloa crus-galli [2], the pIC50 is 2.61. On to `CCCCCCCCCC(=O)ON1C(=O)COc2ccccc21` [DEC-D-DIBOA], for which the pIC50 in the data set with Echinochloa crus-galli [2] was 3.97. `CCCCCCC(=O)ON1C(=O)COc2ccccc21` [HEPT-D-DIBOA]: the negative logarithm of the IC50 (pIC50) in the data set with Echinochloa crus-galli [2] is 3.27. Turning to `CCCCCC(=O)ON1C(=O)COc2ccccc21` [HEX-D-DIBOA], the pIC50 in the data set with Echinochloa crus-galli [2] was 2.92. Same read-out and setting: with `CCCCCCCCCCCC(=O)ON1C(=O)COc2ccccc21` [LAU-DIBOA] the figure was 3.77; with `CCCCCCCCCCCCCC(=O)ON1C(=O)COc2ccccc21` [MIR-D-DIBOA], 3.69; with `CCCCCCCCC(=O)ON1C(=O)COc2ccccc21` [NON-D-DIBOA], 2.84.

For the compound `CCCCCCCC(=O)ON1C(=O)COc2ccccc21` [OCT-D-DIBOA], the negative logarithm of the IC50 (pIC50) with Echinochloa crus-galli [2] is 3.35.

In the case of `CCC(=O)ON1C(=O)COc2ccccc21` [PR-D-DIBOA], in the data set with Echinochloa crus-galli [2], the pIC50 is 2.96. Take `CCC(=O)Nc1ccc(Cl)c(Cl)c1` [PROPANIL]: the pIC50 in the data set on Echinochloa crus-galli [2] was 3.94. With `CCCCCCCCCCCCC(=O)ON1C(=O)COc2ccccc21` [TRIDEC-D-DIBOA], the negative-log IC50 (pIC50) in the data set on Echinochloa crus-galli [2] was 3.44. Still for that read-out and setting: with `CCCCCCCCCCC(=O)ON1C(=O)COc2ccccc21` [UNDEC-D-DIBOA] the figure was 3.37; with `CCCCC(=O)ON1C(=O)COc2ccccc21` [VAL-D-DIBOA], 2.94.
